The record followed here is US10590140B2, “Tetrahydropyrimidodiazepine and dihydropyridodiazepine compounds for treating pain and pain related conditions” (ESTEVE PHARMACEUTICALS, S.A., priority 2016, dated 2020).

The Ki is the equilibrium dissociation constant of an inhibitor or competing ligand from its target.

For this test, the target named is human α2δ-1 subunit of Cav2.2 calcium channel (Homo sapiens (Human), UniProt P54289). The experiment in a line: Binding assay to human α2δ-1 subunit of Cav2.2 calcium channel ([3H]-Gabapentin). The following applies: binding to α2δ-1, [3H]-Gabapentin; read-out: Ki (nM) α2δ-1. An outline of the steps: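 Radioactivity on dried GF/C filters quantified by scintillation after filtration and three cold Tris-HCl (pH 7.4) washes. Incubation ran 60 min at 27° C with [3H]-gabapentin; 10 μM pregabalin gave nonspecific binding.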
Chain of human α2δ-1 subunit of Cav2.2 calcium channel (P54289 25-1103): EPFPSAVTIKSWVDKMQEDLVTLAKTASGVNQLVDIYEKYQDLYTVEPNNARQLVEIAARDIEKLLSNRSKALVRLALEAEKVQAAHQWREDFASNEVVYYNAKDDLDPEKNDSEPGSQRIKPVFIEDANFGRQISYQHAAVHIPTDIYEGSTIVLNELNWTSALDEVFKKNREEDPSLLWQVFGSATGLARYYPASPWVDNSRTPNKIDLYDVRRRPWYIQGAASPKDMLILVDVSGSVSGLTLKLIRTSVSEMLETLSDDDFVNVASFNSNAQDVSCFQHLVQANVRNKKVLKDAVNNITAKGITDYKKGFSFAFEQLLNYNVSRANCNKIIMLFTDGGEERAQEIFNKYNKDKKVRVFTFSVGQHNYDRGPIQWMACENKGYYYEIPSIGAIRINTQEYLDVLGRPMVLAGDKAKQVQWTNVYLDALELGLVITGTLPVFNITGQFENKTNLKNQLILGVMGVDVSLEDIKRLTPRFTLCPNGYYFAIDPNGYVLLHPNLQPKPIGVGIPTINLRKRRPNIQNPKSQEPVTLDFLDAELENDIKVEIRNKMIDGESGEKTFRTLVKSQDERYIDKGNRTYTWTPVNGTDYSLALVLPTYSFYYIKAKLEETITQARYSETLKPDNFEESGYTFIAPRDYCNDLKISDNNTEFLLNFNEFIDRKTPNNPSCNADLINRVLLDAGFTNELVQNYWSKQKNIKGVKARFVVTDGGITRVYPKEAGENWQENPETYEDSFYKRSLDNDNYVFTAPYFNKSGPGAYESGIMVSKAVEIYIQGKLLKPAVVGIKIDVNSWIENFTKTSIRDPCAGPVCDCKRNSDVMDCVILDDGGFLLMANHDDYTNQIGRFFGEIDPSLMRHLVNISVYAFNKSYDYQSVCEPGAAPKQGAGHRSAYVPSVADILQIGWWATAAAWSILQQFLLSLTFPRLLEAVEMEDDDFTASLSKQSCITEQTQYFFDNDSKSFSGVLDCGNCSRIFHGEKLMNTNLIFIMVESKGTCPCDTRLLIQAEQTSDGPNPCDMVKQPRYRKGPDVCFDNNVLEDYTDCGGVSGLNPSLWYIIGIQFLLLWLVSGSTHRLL

SMILES strings stand for the structures.

Regarding `CCNc1ncc2c(n1)N(C)CCN(c1cccc(COC(CCN(C)C(=O)OC(C)(C)C)C(C)C)c1)C2=O` (stereo not drawn) [Example 126, tert-butyl (3-((3-(2-(ethylamino)-9-methyl-5-oxo-5,7,8,9-tetrahydro-6H-pyrimido[4,5-e][1,4]diazepin-6-yl)benzyl)oxy)-4-methylpentyl)(methyl) carbamate], the Ki is over 3000 nM.
With `CCNc1ncc2c(n1)N(C)CCN(Cc1ccccc1COC(CNC)c1ccccc1)C2=O` (stereo not drawn) [Example 412, 2-(ethylamino)-9-methyl-6-(2-((2-(methylamino)-1-phenylethoxy)methyl)benzyl)-6,7,8,9-tetrahydro-5H-pyrimido[4,5-e][1,4]diazepin-5-one], the Ki was over 3000 nM.
Consider `CSc1ncc2c(n1)N(C)CCN(c1cccc(C(C)(C)CN(C)C(=O)OC(C)(C)C)c1)C2=O` [Example 25, tert-butyl methyl(2-methyl-2-(3-(9-methyl-2-(methylthio)-5-oxo-5,7,8,9-tetrahydro-6H-pyrimido[4,5-e][1,4]diazepin-6-yl)phenyl)propyl) carbamate], for which the inhibition constant (Ki) is over 3000 nM.
Take `CCNc1ncc2c(n1)N(C)CCN(c1cccc(OC(C)CN(C)C(=O)OC(C)(C)C)c1)C2=O` (stereo not drawn) [Example 74, tert-butyl (2-(3-(2-(ethylamino)-9-methyl-5-oxo-5,7,8,9-tetrahydro-6H-pyrimido[4,5-e][1,4]diazepin-6-yl)phenoxy)propyl) (methyl)carbamate]: the Ki was over 3000 nM.
For `CSc1ncc2c(n1)N(C)CCN(c1cccc(COC(CCN(C)C(=O)OC(C)(C)C)C(C)C)c1)C2=O` (stereo not drawn) [Example 49, tert-butyl methyl (4-methyl-3-((3-(9-methyl-2-(methylthio)-5-oxo-5,7,8,9-tetrahydro-6H-pyrimido[4,5-e][1,4]diazepin-6-yl)benzyl)oxy)pentyl) carbamate], the Ki is over 3000 nM.
For the compound `CCNc1ncc2c(n1)N(C)CCN(Cc1ccc(OC(CN(C)C(=O)OC(C)(C)C)c3ccccc3)cc1)C2=O` (stereo not drawn) [Example 136, tert-butyl (2-(4-((2-(ethylamino)-9-methyl-5-oxo-5,7,8,9-tetrahydro-6H-pyrimido[4,5-e][1,4]diazepin-6-yl)methyl)phenoxy)-2-phenylethyl)(methyl) carbamate], the Ki is over 3000 nM.
As to `CSc1ncc2c(n1)N(C)CCN(c1cccc(CO[C@@H](CCN(C)C(=O)OC(C)(C)C)c3cccs3)c1)C2=O` [Example 17, tert-butyl (S)-methyl(3-((3-(9-methyl-2-(methylthio)-5-oxo-5,7,8,9-tetrahydro-6H-pyrimido[4,5-e][1,4]diazepin-6-yl)benzyl)oxy)-3-(thiophen-2-yl)propyl) carbamate], the Ki is over 3000 nM.
The figure for `CCNc1ncc2c(n1)N(C)CCN(c1cccc(C(=O)O)c1)C2=O` [Example 313, 3-(2-(ethylamino)-9-methyl-5-oxo-5,7,8,9-tetrahydro-6H-pyrimido[4,5-e][1,4]diazepin-6-yl)benzoic acid] is over 3000 nM; for `CCNc1ncc2c(n1)N(C)CCN(c1cccc(COC(CCNCCF)c3cccs3)c1)C2=O` (stereo not drawn) [Example 345, 2-(ethylamino)-6-(3-((3-((2-fluoroethyl)amino)-1-(thiophen-2-yl)propoxy)methyl)phenyl)-9-methyl-6,7,8,9-tetrahydro-5H-pyrimido[4,5-e][1,4]diazepin-5-one] it is 100 to 500 nM.
On to `CNCCC(OCc1cccc(N2CCN(C)c3cc(C)ncc3C2=O)c1)c1ccccc1` (stereo not drawn) [Example 306, 1,8-dimethyl-4-(3-((3-(methylamino)-1-phenylpropoxy)methyl)phenyl)-1,2,3,4-tetrahydro-5H-pyrido[4,3-e] [1,4]diazepin-5-one], for which the Ki lay within 500 to 3000 nM.
The figure for `CCNc1ncc2c(n1)N(C)CCN(c1cccc(-n3cc(CNC(=O)OC(C)(C)C)nn3)c1)C2=O` [Example 117, tert-butyl ((1-(3-(2-(ethylamino)-9-methyl-5-oxo-5,7,8,9-tetrahydro-6H-pyrimido[4,5-e][1,4]diazepin-6-yl)phenyl)-1H-1,2,3-triazol-4-yl)methyl)carbamate] is over 3000 nM; for `CSc1ncc2c(n1)N(C)CCN(Cc1ccc(CN(C)C(=O)OC(C)(C)C)cc1)C2=O` [Example 64, tert-butyl methyl(4-((9-methyl-2-(methylthio)-5-oxo-5,7,8,9-tetrahydro-6H-pyrimido[4,5-e][1,4]diazepin-6-yl)methyl)benzyl) carbamate] it is over 3000 nM; for `CCNc1ncc2c(n1)N(C)CCN(c1cccc(CCOS(=O)(=O)c3ccc(C)cc3)c1)C2=O` [Example 274, 3-(2-(Ethylamino)-9-methyl-5-oxo-5,7,8,9-tetrahydro-6H-pyrimido[4,5-e][1,4]diazepin-6-yl)phenethyl 4-methylbenzenesulfonate] it is over 3000 nM.
The figure for `Cc1nnc(-c2cccc(N3CCN(C)c4nc(N(C)Cc5ccccc5)ncc4C3=O)c2)o1` [Example 104, 2-(benzyl(methyl)amino)-9-methyl-6-(3-(5-methyl-1,3,4-oxadiazol-2-yl)phenyl)-6,7,8,9-tetrahydro-5H-pyrimido[4,5-e][1,4]diazepin-5-one] is over 3000 nM; for `CCNc1ncc2c(n1)N(C)CCN(c1cccc(OC(CN(C)C(=O)OC(C)(C)C)c3ccccc3)c1)C2=O` (stereo not drawn) [Example 72, tert-butyl (2-(3-(2-(ethylamino)-9-methyl-5-oxo-5,7,8,9-tetrahydro-6H-pyrimido[4,5-e][1,4]diazepin-6-yl)phenoxy)-2-phenylethyl)(methyl) carbamate] it is over 3000 nM.
For `CSc1ncc2c(n1)N(C)CCN(c1cccc(OC(CCN(C)C(=O)OC(C)(C)C)c3cccs3)c1)C2=O` (stereo not drawn) [Example 12, tert-butyl methyl(3-(3-(9-methyl-2-(methylthio)-5-oxo-5,7,8,9-tetrahydro-6H-pyrimido[4,5-e][1,4]diazepin-6-yl)phenoxy)-3-(thiophen-2-yl)propyl) carbamate], the Ki is over 3000 nM.
Turning to `CCNc1ncc2c(n1)N(C)CCN(c1cccc(COC(CN(C)C(=O)OCC[Si](C)(C)C)c3ccccc3)c1)C2=O` (stereo not drawn) [Example 87, 2-(trimethylsilyl)ethyl (2-((3-(2-(ethylamino)-9-methyl-5-oxo-5,7,8,9-tetrahydro-6H-pyrimido[4,5-e][1,4]diazepin-6-yl)benzyl)oxy)-2-phenylethyl)(methyl) carbamate], the Ki is over 3000 nM.
`CCNc1ncc2c(n1)N(C)CCN(c1cccc(-n3cc(CNC)cn3)c1)C2=O` [Example 185, 2-(ethylamino)-9-methyl-6-(3-(4-((methylamino)methyl)-1H-pyrazol-1-yl)phenyl)-6,7,8,9-tetrahydro-5H-pyrimido[4,5-e][1,4]diazepin-5-one]: the Ki fell in the range of 100 to 500 nM.
`CCNc1ncc2c(n1)N(C)CCN(c1ccccc1OC(CCNC)c1ccccc1)C2=O` (stereo not drawn) [Example 188, 2-(ethylamino)-9-methyl-6-(2-(3-(methylamino)-1-phenylpropoxy)phenyl)-6,7,8,9-tetrahydro-5H-pyrimido[4,5-e][1,4]diazepin-5-one]: the Ki was over 3000 nM.
On to `CNCCC(OCc1cccc(N2CCN(C)c3ccncc3C2=O)c1)c1ccccc1` (stereo not drawn) [Example 317, 1-methyl-4-(3-((3-(methylamino)-1-phenylpropoxy)methyl)phenyl)-1,2,3,4-tetrahydro-5H-pyrido[4,3-e][1,4]diazepin-5-one], for which the Ki lay within 500 to 3000 nM.
Take `CCNc1ncc2c(n1)N(C)CCN(c1cccc(COCC(c3ccccc3)N(C)C(=O)OC(C)(C)C)c1)C2=O` (stereo not drawn) [Example 86, tert-butyl (2-((3-(2-(ethylamino)-9-methyl-5-oxo-5,7,8,9-tetrahydro-6H-pyrimido[4,5-e][1,4]diazepin-6-yl)benzyl)oxy)-1-phenylethyl)(methyl) carbamate]: the Ki is over 3000 nM.
As for `CSc1ncc2c(n1)N(C)CCN(c1cccc(O[C@@H](CCN(C)C(=O)OC(C)(C)C)c3cccs3)c1)C2=O` [Example 14, tert-butyl (S)-methyl(3-(3-(9-methyl-2-(methylthio)-5-oxo-5,7,8,9-tetrahydro-6H-pyrimido[4,5-e][1,4]diazepin-6-yl)phenoxy)-3-(thiophen-2-yl)propyl) carbamate], the Ki is over 3000 nM.
With `CSc1ncc2c(n1)N(C)CCN(c1cccc(-n3cc(CN(Cc4ccccc4)C(=O)OC(C)(C)C)nn3)c1)C2=O` [Example 41, tert-butyl benzyl((1-(3 (9-methyl-2-(methylthio)-5-oxo-5,7,8,9-tetrahydro-6H pyrimido[4,5-e][1,4]diazepin-6-yl)phenyl)-1H-1,2,3-triazol-4-yl)methyl) carbamate], the inhibition constant Ki is over 3000 nM.
Next, `CCNc1cc2c(cn1)C(=O)N(c1cccc(COC(CCNC)c3cccs3)c1)CCN2C` (stereo not drawn) [Example 228, 8-(ethylamino)-1-methyl-4-(3-((3-(methylamino)-1-(thiophen-2-yl)propoxy)methyl)phenyl)-1,2,3,4-tetrahydro-5H-pyrido[4,3-e][1,4]diazepin-5-one]: 100 to 500 nM; `CCNc1ncc2c(n1)N(C)CCN(c1cccc(Br)c1)C2=O` [Example 311, 6-(3-bromophenyl)-2-(ethylamino)-9-methyl-6,7,8,9-tetrahydro-5H-pyrimido[4,5-e][1,4]diazepin-5-one]: 500 to 3000 nM.
Regarding `CCNc1ncc2c(n1)N(C)CCN(c1cccc(-n3cc(CN(C)CCOCCO)nn3)c1)C2=O` [Example 273, 2-(ethylamino)-6-(3-(4-(((2-(2-hydroxyethoxy)ethyl) (methyl)amino)methyl)-1H-1,2,3-triazol-1-yl)phenyl)-9-methyl-6,7,8,9-tetrahydro-5H-pyrimido[4,5-e][1,4]diazepin-5-one], the Ki lay within 500 to 3000 nM.
Consider `CCNc1ncc2c(n1)N(C)CCN(c1cccc(OCCCN(Cc3ccccc3)C(=O)OC(C)(C)C)c1)C2=O` [Example 89, tert-butyl benzyl (3-(3-(2-(ethylamino)-9-methyl-5-oxo-5,7,8,9-tetrahydro-6H-pyrimido[4,5-e][1,4]diazepin-6-yl)phenoxy)propyl) carbamate], for which the Ki was over 3000 nM.
